# Data taken from patent publication US12162819B2, “Ionizable lipid compounds” (Beijing Jitai Pharmaceutical Technology Co., Ltd., priority 2022, dated 2024).
# Experiments:
# [1] = Encapsulation efficiency of lipid nanoparticles, Quant-It RiboGreen RNA Assay; assay type: physicochemical; settings: lipid nanoparticle with the cationic lipid, luciferase mRNA
# Protocol: (§1) Lipid nanoparticles were prepared by (1) dissolving and mixing ionizable lipid compounds, cholesterol, phospholipids and polyethylene glycolated lipids in ethanol at (molar percentages) 50%, 38.5%, 10% and 1.5%, respectively; (2) dissolving the mRNA active ingredient in 25 mM sodium acetate solution (pH=4.5); (3) using an automated high-throughput microfluidic system to mix the organic phase containing the lipid mixture and the aqueous phase containing the mRNA component in the flow ratio range of 1:1 to 1:4 at a mixing speed of 10 mL/min to 18 mL/min; (4) the prepared lipid nanoparticles (N/P ratio of 6) were diluted with phosphate buffer solution and the nanoparticle solutions were ultrafiltered to the original preparation volume using ultrafiltration tubes (purchased from Millipore) with a cut-off molecular weight of 30 kDa; and (5) the obtained nanoparticles were filtered through a sterile 0.2 μm filter membrane and then stored in a sealed glass vial at low temperature.
# (§2) The particle size and particle size dispersity index (PDI) of the prepared lipid nanoparticles were measured using a Zetasizer Pro (purchased from Malvern Instruments Ltd) and a DynaPro NanoStar (purchased from Wyatt) dynamic light scattering instrument. The degree of RNA encapsulation by lipid nanoparticles was characterized by the Encapsulation Efficiency %, which reflects the degree of binding of lipid nanoparticles to RNA fragments. This parameter was measured by the method of Quant-It™ RiboGreen RNA Assay (purchased from Invitrogen). Lipid nanoparticle samples were diluted in TE buffer (10 mM Tris-HCl, 1 mM EDTA, pH=7.5). A portion of the sample solution was removed, to which 0.5% Triton (Triton X-100) was added, and then allowed to stand at 37° C. for 30 minutes. Immediately after the addition of RIBOGREEN® reaction solution, the fluorescence values were read on a Varioskan LUX multifunctional microplate reader (purchased from Thermofisher) at 485 nm for absorption and 528 nm for emission to give the encapsulation efficiency values.
# [2] = Particle size and PDI of lipid nanoparticles by dynamic light scattering; assay type: physicochemical; settings: lipid nanoparticle with the cationic lipid, cholesterol, DSPC, DMG-PEG2000 (50/38.5/10/1.5 mol%), luciferase mRNA, N/P 6
# Protocol: as §1, §2
# [3] = system: human embryonic kidney cells 293 (HEKi293T cells); assay: In vitro delivery of luciferase mRNA nanoparticles, luciferase expression (RLU); assay type: cell-based; settings: HEK293T cells, LNP with luciferase mRNA, 24 h
# Protocol: as §1
# (§3) The delivery effect and safety of nanoparticles encapsulated with luciferase mRNA were evaluated at the cellular level in vitro. The cells used in the assay were human embryonic kidney cells 293 (HEKi293T cells) cultured in DMEM (Dulbecco's Modified Eagle Medium) (purchased from Thermo Fisher) containing […] fetal bovine serum and […] penicillin-streptomycin double antibiotics at a indoor temperature of 37° C. and a CO2 concentration of […]. The cells were uniformly dispersed and spread in 48-well plates, and incubated in the incubator for 24 h. Then a solution of the lipid nanoparticles encapsulated with luciferase mRNA were added. After 24 h, the cells were lysed, and the intracellular expression intensity and relative light units (RLU) of luciferase in each type of lipid nanoparticles were measured with a luciferase detection reagent (purchased from Promega). The higher the intensity of expression, the higher the delivery efficiency of the lipid material at the cellular level. Meanwhile, CCK-8 reagent (purchased from DOJINDO) was used in cytotoxicity testing for the parallel lipid nanoparticle-treated cell groups after 24 hours. In the test, the group of cells to which only PBS was added was used as a negative control. The procedure was as follows: after the addition of CCK-8 solution, the cells were left to stand in an incubator at 37° C. for 4 h. The absorbance values were read on a multifunctional microplate reader at an absorbance band of 450 nm. The ratio of the absorbance value of the nanoparticle-treated cells to that of the negative control was used as a characterization parameter for cell viability.
# [4] = system: human embryonic kidney cells 293 (HEKi293T cells); assay: CCK-8 cytotoxicity testing of lipid nanoparticle-treated cells; assay type: cell-based; parameters: concentration or dose not given beside the values; settings: HEK293T cells, LNP-treated 24 h, CCK-8, ratio to PBS negative control
# Protocol: as §1, §3
# C57BL/6 mice = assay: In vivo bioluminescence assay of lipid nanoparticles encapsulated with luciferase mRNA in mice; settings: C57BL/6 mice, intravenous, single dose 0.5 mg/kg luciferase mRNA in LNP, 6 h after administration, group mean
# Protocol: as §1
# The delivery effect and safety of nanoparticles encapsulated with luciferase mRNA (Trilink, L-7202) in mice were evaluated. The test mice were SPF-grade C57BL/6 mice, female, 6-8 weeks old, weighing 18-22 g, and were purchased from SPF (Beijing) Biotechnology Co., Ltd. All animals were acclimatized for more than 7 days prior to the experiment, and had free access to food and water during the experiment. The conditions include alternating light and dark for 12/12 h, the indoor temperature of 20-26° C. and the humidity of 40-70%. The mice were randomly grouped. The lipid nanoparticles encapsulated with luciferase mRNA prepared above were injected into mice by intravenous administration at a single dose of 0.5 mg/kg mRNA, and the mice were subjected to in vivo bioluminescence assay using a Small Animal In Vivo Imaging System (IVIS LUMINA III, purchased from PerkinElmer) at 6 h after administration. The assay was performed as follows: D-luciferin solution was prepared in saline at a concentration of 15 mg/mL, and each mouse was given the substrate by intraperitoneal injection. At ten minutes after administration of the substrate, the mice were anesthetized in an anesthesia chamber with isoflurane at a concentration of 2.5%. The anesthetized mice were placed in IVIS for fluorescence imaging, and data acquisition and analysis were performed on the concentrated distribution area of fluorescence.
# The in vivo delivery efficiency of lipid nanoparticle carriers was expressed as the mean values of fluorescence intensity and total photon count in different animals within the same subject group, as shown in Table 5. Higher values of fluorescence intensity and total photon count indicate higher in vivo delivery efficiency of this mRNA fragment by lipid nanoparticles. The lipid nanoparticles containing the cationic lipids of the present disclosure have good in vivo delivery efficiency.
Compound,Encapsulation efficiency (%) [1],Particle size (nm) [2],Particle size dispersity (PDI) [2],Luciferase luminescence (RLU) [3],Cell viability (%) [4],Total photon count in vivo at 6 hours after administration (Total Flux) (C57BL/6 mice)
CCCCCCCCCOC(=O)C(C)(C)CCCCCC(CCCCCC(C)(C)C(=O)OCCCCCCCCC)OC(=O)CCCCCN(C)C [Compound 32],99.02%,116.61 nm,0.07,6.99E+06 RLU,96.25%,
CCCCCCCCCSC(=O)C(C)(C)CCCCCC(CCCCCC(C)(C)C(=O)SCCCCCCCCC)OC(=O)CCCN(C)C [Compound 37],89.07%,92.18 nm,0.03,1.04E+07 RLU,97.48%,
"CCCCC/C=C\C/C=C\CCCCCCCCC(CCCCCCCC/C=C\C/C=C\CCCCC)OC(=O)CCCN(C)C [DLin-MC3-DMA, reference compound]",95.62%,96.83 nm,0.04,2.95E+06 RLU,97.84%,
CCCCCCCCOC(=O)C(C)(C)CCCCCC(CCCCCC(C)(C)C(=O)OCCCCCCCC)OC(=O)C1CCN(C)CC1 [Compound 100],83.29%,118.19 nm,0.07,1.98E+06 RLU,104.67%,
CCCCCCCCCOC(=O)C(C)(C)CCCCCC(CCCCCC(C)(C)C(=O)SCCCCCCCCC)OC(=O)CCCN(C)C (centres unmarked) [Compound 41],93.91%,104.27 nm,0.05,1.23E+07 RLU,104.91%,
CCCCCCCCCCNC(=O)C(C)(C)CCCCCC(CCCCCC(C)(C)C(=O)NCCCCCCCCCC)OC(=O)CCCN(C)C [Compound 14],45.66%,306.07 nm,0.08,,,6.34E+07
